Test results from patent US20110082220A1, “PORCINE UMAMI TASTE RECEPTORS AND USES THEREFOR” (The Regents of The University of California, priority 2007, published 2011).
Several values for one entry are separate records, joined by “and”; a condition that tells them apart may be missing. Equal values may be shown once.

Assays:
[1] = test system: Pig umami receptor (T1R1/T1R3); assay: Screening assay for ligands: calcium influx via pig umami receptor in transfected CHO-K1 cells (Fluo-4 NW); type: cell-based; details: for Absorbance Mean: CHO-K1 cells with pig taste receptors and mouse G alpha 15; for Index Relative to control: ratio of calcium influx to control (no treatment = 1.00); for stimulation of the pig umami receptor (signal, in words): CHO-K1 cell system, calcium signal; for response index: example test run, background (no treatment) = response ratio 1.0, concentration not given
weaned piglets = assay: Double-choice preference test in drinking water, weaned piglets; type: in vivo, pigs (Landrace×Large White); details: 0.5 M solution vs tap water; for % of preference Mean: two minutes, ad libitum conditions
Text: This example tests preferences in drinking water for amino acids L-Glutamine and L-Lysine in weaned piglets maintained in ad libitum conditions.
A total number of 58 pigs (Landrace×Large White) of 18±2 Kg BW, half males and half females, were used in this study. The test pigs were selected according to their level of stress and behaviour in front of social isolation, reaction to novelty and training to perform a choice between two containers that had the test solution (sugar at 0.5M) and control solution (tap water) after an habituation period of four days. During the habituation period, individual pigs were maintained in contiguous pens in front of two unfamiliar red plastic containers (double-choice test) during 10 minutes every day. On the fourth day, animals were trained for performing the test. […] Selected test animals were maintained in groups of four and three pen mates under ad libitum conditions, feed and water, with a balanced diet according to their requirements. During the experimental sessions, pigs were exposed simultaneously to two different solutions (approximately 250 g in each container) for a time period of two minutes. One of the solutions was tap water (control) and the other contained a 0.5M solution of one of the amino acids tested (test). Volume depletion of both test and control solutions were recorded and the % preference related to the test solution calculated as follows: […]

Compound: N[C@@H](CC(=O)O)C(=O)O [Aspartate]
- Absorbance Mean ([1]; treatment 1 mM): 8619
- Index Relative to control ([1]; treatment 1 mM): 1.03
- Absorbance Mean ([1]; treatment 10 mM): 10352
- Index Relative to control ([1]; treatment 10 mM): 1.24^1

Compound: NC(=O)CC[C@H](N)C(=O)O [Glutamine, L-Glutamine]
- stimulation of the pig umami receptor (signal, in words) ([1]; listed as L-Glutamine): high degree of stimulation
- stimulation of the pig umami receptor (signal, in words) ([1]; listed as glutamine): the strongest and the most significant signal
- Absorbance Mean ([1]; treatment 1 mM): 10901
- Index Relative to control ([1]; treatment 1 mM): 1.31^1
- Absorbance Mean ([1]; treatment 10 mM): 10038
- Index Relative to control ([1]; treatment 10 mM): 1.20^1
- % of preference Mean (weaned piglets): 59.56% and 79.28%
- preferences over tap water (weaned piglets; 1st study): 60%
- preferences over tap water (weaned piglets; 2nd study): 79%

Compound: NCC(=O)O [Glycine]
- Absorbance Mean ([1]; treatment 1 mM): 8874
- Index Relative to control ([1]; treatment 1 mM): 1.06
- Absorbance Mean ([1]; treatment 5 mM): 9543
- Index Relative to control ([1]; treatment 5 mM): 1.14

Compound: O=P(O)(O)O[C@@H]1[C@@H](O)[C@H](O)[C@@H](O)[C@H](O)[C@@H]1O [IMP, inositol monophosphate]
- Absorbance Mean ([1]; treatment 2.5 mM): 9161
- Index Relative to control ([1]; treatment 2.5 mM): 1.10

Compound: NC(CCP(=O)(O)O)C(=O)O [L-AP4]
- Absorbance Mean ([1]; treatment 5 mM): 8907
- Index Relative to control ([1]; treatment 5 mM): 1.07
- Absorbance Mean ([1]; treatment 10 mM): 9316
- Index Relative to control ([1]; treatment 10 mM): 1.12

Compound: NCCCC[C@H](N)C(=O)O [L-Lysine]
- stimulation of the pig umami receptor (signal, in words) [1]: little or no capacity
- preference (in words) (weaned piglets): negative preference
- % of preference Mean (weaned piglets): 37.66%
- preferences over tap water (weaned piglets; study not given): about 38%

Compound: CC(C)C[C@H](N)C(=O)O [Leucine]
- stimulation of the pig umami receptor (signal, in words) [1]: the strongest and the most significant signal
- Absorbance Mean ([1]; treatment 10 mM): 9163
- Index Relative to control ([1]; treatment 10 mM): 1.10
- Absorbance Mean ([1]; treatment 30 mM): 10161
- Index Relative to control ([1]; treatment 30 mM): 1.22^1

Compound: Cl.NCCCC[C@H](N)C(=O)O [Lysine HCl]
- Absorbance Mean ([1]; treatment 10 mM): 9319
- Index Relative to control ([1]; treatment 10 mM): 1.12
- Absorbance Mean ([1]; treatment 30 mM): 9675
- Index Relative to control ([1]; treatment 30 mM): 1.16

Compound: N[C@@H](CO)C(=O)O [Serine]
- Absorbance Mean ([1]; treatment 5 mM): 8372
- Index Relative to control ([1]; treatment 5 mM): 1.00
- Absorbance Mean ([1]; treatment 10 mM): 9697
- Index Relative to control ([1]; treatment 10 mM): 1.16

Compound: C[C@H](N)C(=O)O [alanine]
- response index [1]: 3.47

Compound: N[C@@H](CS)C(=O)O [cysteine]
- response index [1]: 0.83

Compound: C/C=C(/C)C(=O)O[C@H]1C(C)=C2[C@H]([C@@H]1OC(=O)CCCCCCC)[C@@](C)(OC(C)=O)C[C@H](OC(=O)CCC)[C@@]1(O)[C@H]2OC(=O)[C@@]1(C)O [thapsigargin, reference compound]
- response index [1]: 17.89
